The first test concerns the target T1, Pol theta (1-899) (Homo sapiens, UniProt O75417).
T1 construct: Pol theta (1-899) (5 nM) in assay buffer
As to the kind of experiment: Pol theta ATPase activity, NADH oxidation-coupled enzymatic assay (ATPase NADH coupling: Standard Screening: hPolQ). Format: biochemical. The note with it: Pol theta (1-899) 5 nM, NADH oxidation-coupled ATPase assay; compounds of Table 3. In outline:
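Rates of ATP hydrolysis taken from 60-min A340 traces of NADH oxidation via PK/LDH coupling, then fit four-parameter for IC50, Hill slope and max inhibition. Enzyme (5 nM, 1-899) and compounds preincubated 15 min before ATP 100 μM and 50-thymine ssDNA 300 nM (stock, equal volume added).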
T1 sequence (O75417 1-899): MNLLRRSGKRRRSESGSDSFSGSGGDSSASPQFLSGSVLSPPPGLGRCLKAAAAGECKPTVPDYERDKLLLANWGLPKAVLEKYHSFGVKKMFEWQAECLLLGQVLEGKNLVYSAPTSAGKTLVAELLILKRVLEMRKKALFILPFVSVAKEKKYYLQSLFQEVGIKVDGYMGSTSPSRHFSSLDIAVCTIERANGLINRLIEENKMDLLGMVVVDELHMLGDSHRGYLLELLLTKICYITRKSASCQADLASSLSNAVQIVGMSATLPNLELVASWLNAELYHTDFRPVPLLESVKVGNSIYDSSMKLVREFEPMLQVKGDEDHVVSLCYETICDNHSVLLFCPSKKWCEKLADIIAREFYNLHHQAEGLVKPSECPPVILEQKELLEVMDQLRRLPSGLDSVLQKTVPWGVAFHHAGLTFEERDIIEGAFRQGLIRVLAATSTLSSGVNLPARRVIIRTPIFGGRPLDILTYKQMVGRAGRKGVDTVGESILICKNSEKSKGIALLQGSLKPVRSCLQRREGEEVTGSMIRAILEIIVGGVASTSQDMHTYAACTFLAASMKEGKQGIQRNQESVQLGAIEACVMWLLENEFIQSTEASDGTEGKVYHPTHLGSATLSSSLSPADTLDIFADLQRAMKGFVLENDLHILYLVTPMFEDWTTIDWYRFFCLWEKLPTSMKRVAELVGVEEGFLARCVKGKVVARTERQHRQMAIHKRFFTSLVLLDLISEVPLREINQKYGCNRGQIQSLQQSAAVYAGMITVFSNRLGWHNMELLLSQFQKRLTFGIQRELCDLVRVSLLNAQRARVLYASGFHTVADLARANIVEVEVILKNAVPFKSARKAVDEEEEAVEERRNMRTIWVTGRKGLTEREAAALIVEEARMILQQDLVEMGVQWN
Consider `COc1nnc(NC(=O)c2cnc(C)cc2-c2ccc(F)c(C(F)(F)F)c2)s1` [Example 450, 4-[4-fluoro-3-(trifluoromethyl)phenyl]-N-(5-methoxy-1,3,4-thiadiazol-2-yl)-6-methylpyridine-3-carboxamide], for which the IC50 (usually the concentration that inhibits the measured activity by half) was no more than 200 nM.

Compound `COc1cnc(Cl)cc1-c1cc(C)ncc1C(=O)Nc1nnc(O[C@H]2CCCN([C@@H]3CCOC3)C2)s1` [Example 309, 2′-chloro-5′-methoxy-6-methyl-N-(5-(((S)-1-((R)-tetrahydrofuran-3-yl)piperidin-3-yl)oxy)-1,3,4-thiadiazol-2-yl)-[4,4′-bipyridine]-3-carboxamide] came in with an IC50 of no more than 200 nM.

The compound `COCCOc1cccc(-c2cc(C)ncc2C(=O)Nc2nnc(OC)s2)c1` [Example 429, N-(5-methoxy-1,3,4-thiadiazol-2-yl)-4-[3-(2-methoxyethoxy)phenyl]-6-methylpyridine-3-carboxamide] yielded a half-inhibitory concentration (IC50) of 1000 to 10000 nM.

In turn, `COc1nnc(NC(=O)c2cnc(C)cc2-c2ccc(F)c(F)c2)s1` [Example 354, 4-(3,4-difluorophenyl)-N-(5-methoxy-1,3,4-thiadiazol-2-yl)-6-methylpyridine-3-carboxamide] displayed an IC50 of 1000 to 10000 nM.

Turning to `COc1nnc(NC(=O)c2cnc(C)cc2-c2ccc(C)c(C)c2)s1` [Example 381, 4-(3,4-dimethylphenyl)-N-(5-methoxy-1,3,4-thiadiazol-2-yl)-6-methylpyridine-3-carboxamide], the 50% inhibitory concentration (IC50) fell in the range of 1000 to 10000 nM.

`COc1nnc(NC(=O)c2cnc(C)cc2-c2cnc(N(C)C)nc2)s1` [Example 458, 4-(2-(dimethylamino)pyrimidin-5-yl)-N-(5-methoxy-1,3,4-thiadiazol-2-yl)-6-methylnicotinamide] gave an IC50 of 1000 to 10000 nM.

In turn, `COc1nnc(NC(=O)c2cnc(C)cc2-c2cnc(C#N)nc2)s1` [Example 444, 4-(2-cyanopyrimidin-5-yl)-N-(5-methoxy-1,3,4-thiadiazol-2-yl)-6-methylnicotinamide] gave an IC50 of 1000 to 10000 nM.

The compound `COc1nnc(NC(=O)c2cnc(C)cc2-c2ccccc2C(C)C)s1` [Example 392, N-(5-methoxy-1,3,4-thiadiazol-2-yl)-6-methyl-4-[2-(propan-2-yl)phenyl]pyridine-3-carboxamide] came in with an IC50 of 1000 to 10000 nM.

As for `COc1nnc(NC(=O)c2cnc(C)cc2-c2ccc3c(c2)CNC3=O)s1` [Example 379, N-(5-methoxy-1,3,4-thiadiazol-2-yl)-6-methyl-4-(1-oxo-2,3-dihydro-1H-isoindol-5-yl)pyridine-3-carboxamide], the IC50 is 1000 to 10000 nM.

Compound `COc1nnc(NC(=O)c2cnc(C)cc2-c2ccc(C#N)nc2)s1` [Example 437, 6-cyano-N-(5-methoxy-1,3,4-thiadiazol-2-yl)-6′-methyl-[3,4′-bipyridine]-3′-carboxamide] yielded an IC50 of 1000 to 10000 nM.

As for `COc1nnc(NC(=O)c2cnc(C)cc2-c2cccc(C(=O)O)c2)s1` [Example 326, 3-(5-((5-methoxy-1,3,4-thiadiazol-2-yl)carbamoyl)-2-methylpyridin-4-yl)benzoic acid], the IC50 is 1000 to 10000 nM.

In turn, `COc1cnc(Cl)cc1-c1cc(C)ncc1C(=O)Nc1nnc(O[C@@H]2C[C@H](F)CN(C(C)C)C2)s1` (single isomer, unassigned) [Example 283] registered a concentration for half-maximal inhibition (IC50) of 200 to 500 nM.

For the compound `COc1cnc(C)c(F)c1-c1cc(C)ncc1C(=O)Nc1nnc(O[C@H]2CCC[C@@H](O)C2)s1` (single isomer, unassigned) [Example 236], the IC50 was no more than 200 nM.

In turn, `COc1nnc(NC(=O)c2cnc(C)cc2-c2cccc(CC#N)c2)s1` [Example 477, 4-[3-(cyanomethyl)phenyl]-N-(5-methoxy-1,3,4-thiadiazol-2-yl)-6-methylpyridine-3-carboxamide] returned an IC50 of 1000 to 10000 nM.

`COc1nnc(NC(=O)c2cnc(C)cc2-c2cccc(F)c2)s1` [Example 421, 4-(3-fluorophenyl)-N-(5-methoxy-1,3,4-thiadiazol-2-yl)-6-methylpyridine-3-carboxamide] had an IC50 of 500 to 1000 nM.

For `COc1cnc(C)c(F)c1-c1cc(C)ncc1C(=O)Nc1nnc(O[C@H]2CO[C@H]3OCC[C@H]32)s1` [Example 243, 3′-fluoro-N-(5-(((3R,3aS,6aR)-hexahydrofuro[2,3-b]furan-3-yl)oxy)-1,3,4-thiadiazol-2-yl)-5′-methoxy-2′,6-dimethyl-[4,4′-bipyridine]-3-carboxamide], the IC50 is no more than 200 nM.

Take `COc1nnc(NC(=O)c2cnc(C)cc2-c2cc(C3CC3)nn2C2CCCCO2)s1` (centres unmarked) [Example 350, 4-(3-cyclopropyl-1-(tetrahydro-2H-pyran-2-yl)-1H-pyrazol-5-yl)-N-(5-methoxy-1,3,4-thiadiazol-2-yl)-6-methylnicotinamide]: the IC50 lay in the range of 1000 to 10000 nM.

The test is the same for the next values; noted with them: Table 4; Pol theta (1-899) 5 nM, ATP, dT50 ssDNA.
In turn, `Cc1cc(-c2cc(Cl)ncc2OC(F)F)c(C(=O)Nc2nnc(OC3COC3)s2)cn1` [Example 62, 2′-chloro-5′-(difluoromethoxy)-6-methyl-N-(5-(oxetan-3-yloxy)-1,3,4-thiadiazol-2-yl)-(4,4′-bipyridine)-3-carboxamide] gave a half-inhibitory concentration (IC50) of no more than 200 nM.

In turn, `COc1nnc(NC(=O)c2cnc(C)cc2-c2cc3[nH]ncc3cc2OC)s1` [Example 67, N-(5-methoxy-1,3,4-thiadiazol-2-yl)-4-(5-methoxy-1H-indazol-6-yl)-6-methylnicotinamide] yielded an IC50 of 1000 to 10000 nM.

In turn, `CCOc1nnc(NC(=O)c2cnc(C)cc2-c2cc(Cl)ncc2OC)s1` [Example 28, 2′-chloro-N-(5-ethoxy-1,3,4-thiadiazol-2-yl)-5′-methoxy-6-methyl-(4,4′-bipyridine)-3-carboxamide] showed an IC50 of no more than 200 nM.

In turn, `COc1cnc(Cl)c(F)c1-c1cc(C)ncc1C(=O)Nc1nnc(OC2COC2)s1` [Example 60, 2′-chloro-3′-fluoro-5′-methoxy-6-methyl-N-(5-(oxetan-3-yloxy)-1,3,4-thiadiazol-2-yl)-(4,4′-bipyridine)-3-carboxamide] registered an IC50 of no more than 200 nM.

The test is the same for the next values; noted with them: Table 5; Pol theta (1-899) 5 nM, ATP, dT50 ssDNA.
As for `COc1cnc(Cl)cc1-c1cc(C)ncc1C(=O)Nc1nnc(O[C@H]2C[C@H](OC)C2)s1` (single isomer, unassigned) [Example 133, 2′-chloro-5′-methoxy-N-(5-((1r,3r)-3-methoxycyclobutoxy)-1,3,4-thiadiazol-2-yl)-6-methyl-(4,4′-bipyridine)-3-carboxamide], the IC50 is no more than 200 nM.

With `COc1cnc(Cl)cc1-c1cc(C)ncc1C(=O)Nc1nnc(O[C@H]2COCC2(F)F)s1` (single isomer, unassigned) [Example 128], the IC50 is no more than 200 nM.

Take `COc1cnc(Br)c(F)c1-c1cc(C)ncc1C(=O)Nc1nnc(O[C@@H]2CCOC2)s1` [Example 201, 2′-bromo-3′-fluoro-5′-methoxy-6-methyl-N-(5-(((R)-tetrahydrofuran-3-yl)oxy)-1,3,4-thiadiazol-2-yl)-(4,4′-bipyridine)-3-carboxamide]: the IC50 is no more than 200 nM.

In turn, `COc1nnc(NC(=O)c2cnc(C)cc2-c2ccncc2OC)s1` [Example 101, 3′-methoxy-N-(5-methoxy-1,3,4-thiadiazol-2-yl)-6-methyl-(4,4′-bipyridine)-3-carboxamide] gave an IC50 of 1000 to 10000 nM.

Turning to `COc1cnc(Cl)c(F)c1-c1cc(C)ncc1C(=O)Nc1nnc(O[C@@H]2CCO[C@H]2C)s1` (single isomer, unassigned) [Example 167], the IC50 was no more than 200 nM.

Compound `COc1nnc(NC(=O)c2cnc(C)cc2-c2cnn3c2OCC3)s1` [Example 126, 4-(2,3-dihydropyrazolo(5,1-b)oxazol-7-yl)-N-(5-methoxy-1,3,4-thiadiazol-2-yl)-6-methylnicotinamide] registered an IC50 of 1000 to 10000 nM.

`COc1cnc(Cl)c(F)c1-c1cc(C)ncc1C(=O)Nc1nnc(O[C@@H]2CCC[C@H](O)C2)s1` (single isomer, unassigned) [Example 155] had an IC50 of no more than 200 nM.

On to `COc1cnc(Cl)c(F)c1-c1cc(C)ncc1C(=O)Nc1nnc(O[C@@H]2CCC[C@@H](O)C2)s1` (single isomer, unassigned) [Example 157], for which the IC50 is no more than 200 nM.

As for `COc1cnc(Cl)cc1-c1cc(C)ncc1C(=O)Nc1nnc(O[C@H]2CC[C@](C)(O)CC2)s1` (single isomer, unassigned) [Example 140, 2′-chloro-N-(5-(((1r,4r)-4-hydroxy-4-methylcyclohexyl)oxy)-1,3,4-thiadiazol-2-yl)-5′-methoxy-6-methyl-(4,4′-bipyridine)-3-carboxamide], the IC50 was no more than 200 nM.

As for `COc1cnc(Cl)cc1-c1cc(C2CCCC2)ncc1C(=O)Nc1nnc(O[C@@H]2CCOC2)s1` [Example 134, (R)-2′-chloro-6-cyclopentyl-5′-methoxy-N-(5-((tetrahydrofuran-3-yl)oxy)-1,3,4-thiadiazol-2-yl)-(4,4′-bipyridine)-3-carboxamide], the IC50 lay within 500 to 1000 nM.

The compound `COc1cnc(Cl)cc1-c1cc(C)ncc1C(=O)Nc1nnc(O[C@H]2COC3(CC3)C2)s1` (single isomer, unassigned) [Example 117] showed an IC50 of no more than 200 nM.

Regarding `COc1nnc(NC(=O)c2cnc(C)cc2-c2ccc3nscc3c2)s1` [Example 105, 4-(benzo(c)isothiazol-5-yl)-N-(5-methoxy-1,3,4-thiadiazol-2-yl)-6-methylnicotinamide], the IC50 lay in the range of 1000 to 10000 nM.

On to `COc1cnc(Br)cc1-c1cc(C)ncc1C(=O)Nc1nnc(O[C@H]2CC[C@](C)(O)CC2)s1` (single isomer, unassigned) [Example 225, 2′-bromo-N-(5-(((1r,4r)-4-hydroxy-4-methylcyclohexyl)oxy)-1,3,4-thiadiazol-2-yl)-5′-methoxy-6-methyl-(4,4′-bipyridine)-3-carboxamide], for which the IC50 was no more than 200 nM.

The same test, now with this note: Table 5; values given as bound; Pol theta (1-899) 5 nM, ATP, dT50 ssDNA.
The compound `COc1nnc(NC(=O)c2cn(-c3cc(Cl)ncc3OC)nn2)s1` [Example 234, 1-(2-chloro-5-methoxypyridin-4-yl)-N-(5-methoxy-1,3,4-thiadiazol-2-yl)-1H-1,2,3-triazole-4-carboxamide] yielded an IC50 greater than 10000 nM.
